According to patent US7763650B2, “Pharmaceutical compound and method” (Medipharma S.A., priority 2006, dated 2010):

Columns and labels:
[1] = tested on: Maximal electroshock seizures; assay: Maximal electroshock seizure (MES) anticonvulsant test; assay type: in vivo; settings: mice; for Relative Power in relation to 2-propylpentanoic acid (Valproic acid): MES test; for MES test: Effective doses 50: ip, at time of peak effect, micromols per Kg of mouse weight
Protocol: In Vivo Experiments: The pharmacological tests were performed according to standard procedures provided by the Antiepileptic Drug Development (ADD) Program of the National Institute of Neurological and Communicative Disorders and Stroke (NINCDS). Anticonvulsant tests: Maximal electroshock seizures were elicited in mice by delivering a 60 Hz/50 mA electrical stimulus for 0.2 sec. via ear clip electrodes. A drop of saline solution applied on each ear before placing the electrodes ensures adequate electrical contact. In these conditions, maximal seizures are produced in virtually all normal mice. The maximal seizure typically consists of a short period of tonic flexion followed by a longer period of tonic extension of the hind limbs and a final clonic episode. Blockade of the hind limbs tonic extensor component due to the drug treatment is taken as the end point. […] Determination of the Time of Peak Effect (TPE): […] The percentages of protection or neurotoxicity are recorded and plotted against time and the TPEs are determined by visual inspection of the graphs. Estimation of the ED50s: Groups of 8 animals per dose are injected via ip. […] The percentages of protection at each dose (converted to probit) were plotted against log-doses.

[2] = tested on: mice; assay: RotoRod minimal neurotoxicity test; assay type: in vivo; settings: for Protection: Rotorot test on Effective Doses 50: mouse, in vivo
Protocol: In Vivo Experiments: The pharmacological tests were performed according to standard procedures provided by the Antiepileptic Drug Development (ADD) Program of the National Institute of Neurological and Communicative Disorders and Stroke (NINCDS). Neurotoxicity tests: The RotoRod test is used exclusively in mice to assess minimal neurotoxicity. A normal mouse can maintain its equilibrium on a rotating rod (6 rpm) for long periods of time. Neurological deficit is indicated by failure to keep walking on this rotating rod in each of three trials of 1 min each. Estimation of the neurotoxic effects: Groups of 8 animals per dose were injected and tested with the RotoRod test. The percentages of animals showing minimal neurotoxicity were recorded and the higher dose producing neurotoxic effects is reported.

Row | Compound | Relative Power in relation to 2-propylpentanoic acid (Valproic acid) [1] | MES test: Effective doses 50 [1] | Protection: Rotorot test on Effective Doses 50 [2] | Rotorod: animals showing neurotoxicity / animals tested ([2]; mice, dose not given) | Protective index (Rotorod neurotoxic dose / MES ED50) ([2]; ratio of Rotorod dose to MES ED50, mice)
1 | CCCC(CCC)C(=O)OC1C(O)C(O)C(O)C(O)C1OC(=O)C(CCC)CCC (racemic) [Example 5, (±)-3,4-Di-O-(2-propylpentanoyl)-myo-inositol] | 35 | 35 µmol/kg | 12 | – | –
2 | CCCC(CCC)C(=O)O[C@H]1[C@H](OC(=O)C(CCC)CCC)[C@@H](OC(=O)C(CCC)CCC)[C@H](OC(=O)C(CCC)CCC)[C@@H](OC(=O)C(CCC)CCC)[C@H]1OC(=O)C(CCC)CCC [Example 1, (±)1,2,3,4,5,6-hexa-O-(2-propylpentanoyl)-myo-inositol] | – | 100 µmol/kg | – | 0/6 | –
3 | CCCC(CCC)C(=O)OC1C(O)C(O)C(OC(=O)C(CCC)CCC)C(OC(=O)C(CCC)CCC)C1OC(=O)C(CCC)CCC (racemic) [Example 4, (±)-3,4,5,6-tetra-O-(2-propylpentanoyl)-myo-inositol] | 9 | 100 µmol/kg | 6 | – | –
4 | (±)-5,6-Di-O-(2-propylpentanoyl)-1,2:3,4-di-O-cyclohexyl-O-myo-inositol [Example 2] | 35 | 80 µmol/kg | – | – | 12
5 | CCCC(CCC)C(=O)O [Valproic acid, valproic acid, reference compound] | 1 | 1010 µmol/kg | – | – | –
